In ChEMBL document CHEMBL1124251, “Topical nonsteroidal antipsoriatic agents. 2. 2,3-(Alkylidenedioxy)naphthalene analogues of lonapalene” (1988):

Columns and labels:
[1] = system: Mus musculus; test: Percent inhibition of arachidonic acid induced mouse ear edema at 2 mg of total dose; Insufficiently soluble in acetone; format: functional, organism-based
[2] = system: Mus musculus; test: Percent inhibition of arachidonic acid induced mouse ear edema at 2 mg of total dose; format: functional

Structure (SMILES) | inhibition [1] | Inhibition [2]
O=C(Oc1c2c(c(OC(=O)c3ccccc3)c3cc(Cl)ccc13)OCCCO2)c1ccccc1 | Insufficiently soluble in acetone | 
CC(C)C(=O)Oc1c2c(c(OC(=O)C(C)C)c3cc(Cl)ccc13)OCCCO2 |  | 27%
CCCC(=O)Oc1c2c(c(OC(=O)CCC)c3cc(Cl)ccc13)OCCO2 |  | 26%
CC(=O)Oc1c2c(c(OC(C)=O)c3cc(Cl)ccc13)OCCCO2 |  | 40%
O=C(Oc1c2c(c(OC(=O)c3ccccc3)c3cc(Cl)ccc13)OCCO2)c1ccccc1 | Insufficiently soluble in acetone | 
CC(=O)Oc1c2c(c(OC(C)=O)c3cc(Cl)ccc13)OCO2 |  | 61%
COc1c(OC)c(OC(C)=O)c2cc(Cl)ccc2c1OC(C)=O [LONAPALENE] |  | 54%
CCCC(=O)Oc1c2c(c(OC(=O)CCC)c3cc(Cl)ccc13)OCCCO2 |  | 35%
CCC(=O)Oc1c2c(c(OC(=O)CC)c3cc(Cl)ccc13)OCO2 |  | 35%
CC(C)(C)C(=O)Oc1c2c(c(OC(=O)C(C)(C)C)c3cc(Cl)ccc13)OCO2 |  | 8%
CC(C)(C)C(=O)Oc1c2c(c(OC(=O)C(C)(C)C)c3cc(Cl)ccc13)OCCCO2 |  | 10%
CC(C)C(=O)Oc1c2c(c(OC(=O)C(C)C)c3cc(Cl)ccc13)OCCO2 |  | 75%
CCC(=O)Oc1c2c(c(OC(=O)CC)c3cc(Cl)ccc13)OCCO2 |  | 30%
CC(=O)Oc1c2c(c(OC(C)=O)c3cc(Cl)ccc13)OCCO2 |  | 24%
O=C(Oc1c2c(c(OC(=O)c3ccccc3)c3cc(Cl)ccc13)OCO2)c1ccccc1 |  | 10%
CC(C)(C)C(=O)Oc1c2c(c(OC(=O)C(C)(C)C)c3cc(Cl)ccc13)OCCO2 |  | 41%
CCC(=O)Oc1c2c(c(OC(=O)CC)c3cc(Cl)ccc13)OCCCO2 |  | 10%
